# Reference: US11471467B2, “Ruthenium complexes for treating cancer which comprises cancer stem cells” (UNIVERSIDADE DE SANTIAGO DE COMPOSTELA, priority 2016, dated 2022)
# Experiments:
# Panc185 cells = experiment: Tumorigenicity of pretreated PDAC cells injected subcutaneously into NOD-SCID mice; assay type: in vivo
# Experimental: FIG. 22. Effects of RuH2O on PDAC sphere formation. (A) Work sequence of the experiment for evaluating the effect of RuH2O in PDAC CSC (B) Light micrographs of spheres derived from Panc185 and PancA6L cells after 10 days of treatment with 250 μM of RuH2O FIG. 23. Effects of RuH2O on PDAC tumorigenicity in vivo. Panc185 cells were pretreated with RuH2O before subcutaneous injection into NOD-SCID (non-obese diabetic, severe combined immunodeficiency) mice. Tumors were extracted 12 weeks after injection and analyzed. A) Photographs of the tumors extracted from NOD-SCID mice 12 weeks after being injected with 10^4 or 10^3 Panc185 cells and pretreated with control (CTL) or 250 μM of RuH2O. (B) Summary of the numbers of tumors detected per injection with 10^4 or 10^3 Panc185 cells and pretreated with control (CTL) or 250 μM of RuH2O. (C) Weights of the tumors extracted from NOD-SCID mice 12 weeks after being injected with 10^4 or 10^3 Panc185 cells and pretreated with control (CTL) or 250 μM of RuH2O.
# FIG. 27. Tumorigenicity of PDAC cells after treatment with RuH2O. PDAC cells were treated with the indicated concentrations of RuH2O for 48 hours and then injected subcutaneously into NOD-SCID mice. Tumors were extracted 7 or 11 weeks after injection.
# The spheres were then disassociated and equal numbers of control-treated cells and RuH2O-treated cells were injected subcutaneously into immunocompromised NOD-SCID mice to evaluate the tumorigenicity thereof. Twelve weeks after the injection, the tumors were extracted and weighed. […] While 4 out of 4 injections and 5 out of 6 injections with 10,000 and 1,000 control-treated cells, respectively, led to tumors, only 1 out of every 6 injections with 10,000 RuH2O-treated cells led to tumor. […] Furthermore, the only tumor that developed in the mouse injected with 10,000 RuH2O-treated cells weighed 53 times less than the tumors formed in control-treated mice (0.0058 g with respect to 0.3118 g).
# (§1) The trypsinized cells were then: 1) placed in a plate at a low confluence to evaluate their clonogenicity (FIG. 25); 2) repeatedly cultured in ultra-low adherent plates in serum-free DMEM/F12 supplemented with B27 for intervals of 7 days to evaluate sphere formation capacity over multiple generations (FIG. 26); and 3) subcutaneously injected into NOD-SCID mice to check their tumorigenicity as described above (FIG. 27).
# Finally, the tumorigenicity of sphere-rich CSCs was studied as described above.
# PDAC cancer stem cells = experiment: Sphere formation (self-renewal) of PDAC cancer stem cells; assay type: cell-based; settings: for sphere formation capacity (self-renewal): PDAC cells pre-treated twice with 100 and 250 μM, treated again on day 4, against control cultures
# Experimental: (§2) On one hand, the inventors analyzed if complex 2 may increase c-MYC expression in pancreatic CSCs, and on the other hand, if the increase in c-MYC expression would negatively affect the CSC phenotype, for example, CSC self-renewal capacity. […] After having achieved a substantial increase in c-MYC expression, it was then analyzed if the CSC self-renewal capacity was affected. To that end, briefly the PDAC cells were pre-treated twice with complex 2 (RuH2O) at a concentration of 100 and 250 μM before establishing sphere cultures in […] as described in Cioffi M (Cioffi M et al. 2015 Gut 12: 1936-1948). The spheres were again treated on day 4 after sphere formation.
# It was then evaluated if ruthenium complex 2 may negatively affect CSC phenotypes, such as self-renewal and tumorigenicity. […] During these 7 days, the samples were treated again with 250 μM of RuH2O on days 1, 3, and 5 after initiation of the spheres. […] The CSC spheres were smaller and less abundant in the RuH2O group.
# as §1
# c-MYC = c-MYC protein expression by Western blot in PDAC cells; assay type: cell-based
# Experimental: FIG. 17. Effects of complex 2 (RuH2O) on pancreatic ductal adenocarcinoma (PDAC) cells.
# FIG. 18. […] Western blot analysis of the expression of c-MYC in cultures 24 and 48 h after treatment with RuH2O.
# as §2
# [1] = system: Panc185 and PancA6L cells; experiment: ToxiLight BioAssay cytotoxicity (adenylate kinase release); assay type: cell-based
# Experimental: FIG. 20. Cytotoxic effects of RuH2O on PDAC cultures. Relative cell death was determined in adherent cultures (low in CSC) and spheres (rich in CSC) of Panc185 (A) and PancA6L (B) at 24, 48, and 72 hours after treatment with the indicated doses of RuH2O.
# It was then studied if the […] c-MYC expression and the phenotype and transcriptional changes observed were cytotoxic. For this analysis, the ToxiLight™ BioAssay kit, a bioluminescent, non-destructive cytolysis assay kit designed for measuring the adenylate kinase (AK) enzyme released from damaged cells (FIG. 20), was used. Adherent cultures (low in CSC) and cultured spheres (rich in CSC) were treated with increasing doses of RuH2O and cytotoxicity was measured 24, 48, and 72 hours after treatment. In adherent cultures and in both assayed cell lines, toxicity was only observed at 72 hours (3-fold increase in dead cells) when the cells were treated with 250 μM of RuH2O.
substance,measurement,setting,value
[Ru(terpy) (bpy)H2O]^2+ [complex 2],tumor formation,"Panc185 cells; 1,000 sphere-derived cells pretreated with 250 μM, NOD-SCID mice, 12 weeks",Tumors did not form
same,"tumor weight, times less than control-treated","Panc185 cells; 10,000 pretreated cells, 12 weeks",53 times
same,tumor weight,"Panc185 cells; 10,000 pretreated cells, 12 weeks, the only tumor",0.0058 g
same,tumorigenicity,"Panc185 cells; adherent cultures treated 48 hours, injected subcutaneously into NOD-SCID mice, 7 or 11 weeks","prevents clonogenicity, self-regeneration, and tumorigenicity"
same,sphere formation capacity (self-renewal),PDAC cancer stem cells,"significant, dose-dependent reduction in the sphere formation capacity"
same,sphere formation capacity (self-renewal),PDAC cancer stem cells; listed as Complex 2,reduces the self-renewal capacity
same,sphere formation capacity,"PDAC cancer stem cells; PDAC cells, 250 μM for 24 hours, again on days 1, 3 and 5, against control",significant reduction in the sphere formation capacity
same,self-regeneration (sphere formation over multiple generations),PDAC cancer stem cells; adherent cultures treated 48 hours with 100 or 250 μM,"prevents clonogenicity, self-regeneration, and tumorigenicity"
same,c-MYC protein expression,"c-MYC; PDAC cells, 100 and 250 μM, 6, 12 or 24 hours",expression of c-MYC increased after treatment
same,c-MYC protein expression,"c-MYC; PDAC cells, 100 and 250 μM, 6, 12 or 24 hours, listed as Complex 2",increases the expression of c-MYC
same,c-MYC protein expression,"c-MYC; Panc185 and PancA6L cells, 100 μM, 24 hours after treatment",increased c-MYC protein expression
same,c-MYC protein levels,"c-MYC; Panc185 and PancA6L cells, 48 hours after treatment",significant decrease in c-MYC protein levels
same,increase in dead cells,"[1]; adherent cultures (low in CSC), both cell lines, 250 μM, 72 hours",3 fold
same,toxicity (ToxiLight),"[1]; adherent cultures (low in CSC), single dose 100 or 250 μM, 48 hours",no toxicity was observed
same,cell death,"[1]; spherical cultures (rich in CSC), 100 μM",induced cell death
